Test results published in paper PMC8795197, “Safety and activity of WX-0593 (Iruplinalkib) in patients with ALK- or ROS1-rearranged advanced non-small cell lung cancer: a phase 1 dose-escalation and dose-expansion trial” (Signal Transduction and Targeted Therapy, 2022).
“Also recorded” adds a separate entry of the source.

Tested on: advanced NSCLC patients with ALK or ROS1 rearrangement
Assay: Phase 1 dose-expansion phase: antitumor activity (RECIST 1.1, investigators)
Format: in vivo, human
Conditions: for intracranial objective response rate: Baseline measurable CNS metastasis; for DOR, median (95% CI) / PFS, median (95% CI) / TTP, median (95% CI) / DCR (95% CI) / ORR (95% CI) / PFS, number of events (%): ALK-positive patients
Excerpt: Patients continued treatment until documented disease progression, unacceptable toxicity, withdrawal of consent, the start of a new anticancer treatment, death, loss of follow-up, or end of the study (whichever occurred first). Patients were permitted to continue treatment after progression if they were still experiencing clinical benefit, at the discretion of the investigator. Patients performed imaging evaluation at baseline, with computed tomography or magnetic resonance imaging of the chest, abdomen, pelvis, and brain. In the dose-escalation phase, the first efficacy evaluation was done after 3-week continuous administration of WX-0593 and every 6 weeks thereafter. […] AEs were assessed in all patients throughout this study and graded per the National Cancer Institute Common Terminology Criteria for Adverse Events version 4.03. In the dose-expansion phase, the primary endpoint was ORR assessed by investigators. Other key secondary endpoints included PFS, DCR, time to progression (TTP), DOR, intracranial response, and safety. Additionally, overall survival (OS) was assessed as a prespecified exploratory endpoint. ORR was defined as the proportion of patients who had best overall response, including CR or PR. PFS was calculated from the date of the first dose of WX-0593 to the date of documented disease progression or death (whichever occurred first). DCR was defined as the proportion of patients who had best overall response, including CR, PR, or SD, with a duration of at least 12 weeks. TTP was calculated from the date when the first dose of WX-0593 was given to first documented disease progression. […] OS was calculated from the date when the first dose of WX-0593 was administered to the date of death from any cause. Safety analysis was performed in the SS, which was comprised of all patients treated with one dose of WX-0593 and with safety data recorded. Efficacy analysis was performed in the FAS, which was defined as all patients treated with at least one dose of WX-0593. The PK analysis set included all patients treated with at least one dose of WX-0593 and with at least one evaluable PK sample. […] Descriptive statistics were carried out to summarize patients’ baseline characteristics and safety. […] All time-to-event data (PFS, TTP, DOR, and OS) and their corresponding 95% CIs were estimated by Kaplan–Meier methods. PK parameter analyses were done with Phoenix WinNonlin version 8.0. All other statistical analyses were conducted using SAS version 9.4.

[1] = ALK-rearranged, crizotinib as the only ALK TKI

## COc1cc(N2CCC3(CCN(C)CC3)CC2)ccc1Nc1ncc(Cl)c(Nc2ccccc2P(C)(C)=O)n1 [WX-0593]
120mg, ALK-rearranged patients
  objective response rate: 53.2% (25/47, 38.1-67.9%)
120mg, ALK-rearranged patients, ALK TKI naive
  objective response rate: 76.5% (13/17, 50.1-93.2%)
120mg, ALK-rearranged patients, ALK TKI naive, chemotherapy naïve
  objective response rate: 75.0%(6/8, 34.9-96.8%)
120mg, ALK-rearranged patients, ALK TKI naive, received chemotherapy before
  objective response rate: 77.8% (7/9, 40.0-97.2%)
120mg, ALK-rearranged patients, Crizotinib and other ALK TKIs
  objective response rate: 0 (0/2, 0-84.2%)
120mg, ALK-rearranged patients, Crizotinib only
  objective response rate: 44.4% (12/27, 25.5-64.7%)
120mg, ALK-rearranged patients, Other ALK TKIs
  objective response rate: 0 (0/1, 0-97.5%)
120mg, Baseline CNS metastasis
  objective response rate: 22.9% (8/35, 10.4-40.1%)
120mg, Baseline CNS metastasis, ALK TKI naive
  objective response rate: 23.1% (3/13, 5.0-53.8%)
120mg, Baseline CNS metastasis, Crizotinib only
  objective response rate: 25.0% (5/20, 8.7-49.1%)
120mg, Baseline CNS metastasis, Radiotherapy before
  objective response rate: 16.7% (2/12, 2.1-48.4%)
120mg, Baseline CNS metastasis, Radiotherapy naïve
  objective response rate: 26.1% (6/23, 10.2-48.4%)
120mg
  intracranial objective response rate: 45.5% (2/11, 16.7-76.6%)
120mg, ALK TKI naive
  intracranial objective response rate: 33.3% (1/3, 0.8-90.6%)
120mg, Crizotinib only
  intracranial objective response rate: 50.0% (4/8, 15.7-84.3%)
120mg, Radiotherapy before
  intracranial objective response rate: 28.6% (2/7, 3.7-71.0%)
120mg, Radiotherapy naïve
  intracranial objective response rate: 75.0% (3/4, 19.4-99.4%)
120mg, Prior ALK TKI treatment: Crizotinib and other ALK TKI
  objective response rate: 0 (0/2, 0-84.2%)
120mg, Prior ALK TKI treatment: Crizotinib only
  objective response rate: 41.4% (12/29, 23.5-61.1%)
120mg, ROS1-rearranged patients
  objective response rate: 0 (0/3, 0-70.8%)
120mg, ROS1-rearranged patients, Crizotinib naive
  objective response rate: 0 (0/1, 0-97.5%)
120mg, ROS1-rearranged patients, Received Crizotinib before
  objective response rate: 0 (0/2, 0-84.2%)
120mg, dose expansion phase, Prior ALK TKI treatment: ALK TKI naive
  objective response rate: 72.2% (13/18, 46.5-90.3%)
180mg, ALK-rearranged patients
  objective response rate: 63.6% (28/44, 47.8-77.6%)
180mg, ALK-rearranged patients, ALK TKI naive
  objective response rate: 76.2% (16/21, 52.8-91.8%)
180mg, ALK-rearranged patients, ALK TKI naive, chemotherapy naïve
  objective response rate: 91.7% (11/12, 61.5-99.8%)
180mg, ALK-rearranged patients, ALK TKI naive, received chemotherapy before
  objective response rate: 55.6% (5/9, 21.2-86.3%)
180mg, ALK-rearranged patients, Crizotinib and other ALK TKIs
  objective response rate: 66.7% (2/3, 9.4-99.2%)
180mg, ALK-rearranged patients, Crizotinib only
  objective response rate: 47.4% (9/19, 24.4-71.1%)
180mg, ALK-rearranged patients, Other ALK TKIs
  objective response rate: 100% (1/1, 2.5-100.0%)
180mg, Baseline CNS metastasis, ALK TKI naive
  objective response rate: 28.6% (2/7, 3.7-71.0%)
180mg, Baseline CNS metastasis, Crizotinib only
  objective response rate: 15.4% (2/13, 1.9-45.4%)
180mg, Baseline CNS metastasis, Radiotherapy before
  objective response rate: 0 (0/7, 0-41.0%)
180mg, Baseline CNS metastasis, Radiotherapy naïve
  objective response rate: 31.3% (5/16, 11.0-58.7%)
180mg
  intracranial objective response rate: 50.0% (2/4, 6.8-93.2%)
180mg, ALK TKI naive
  intracranial objective response rate: 100% (1/1, 2.5-100%)
180mg, Crizotinib only
  intracranial objective response rate: 50.0% (1/2, 1.3-98.7%)
180mg, Radiotherapy naïve
  intracranial objective response rate: 31.3% (5/16, 11.0-58.7%)
180mg, Prior ALK TKI treatment: Crizotinib and other ALK TKI
  objective response rate: 66.7% (2/3, 9.4-99.2%)
180mg, Prior ALK TKI treatment: Crizotinib only
  objective response rate: 42.9% (9/21, 21.8-66.0%)
180mg, ROS1-rearranged patients
  objective response rate: 66.7% (4/6, 22.3-95.7%)
180mg, ROS1-rearranged patients, Crizotinib naive
  objective response rate: 100% (4/4, 39.8-100%)
180mg, ROS1-rearranged patients, Received Crizotinib before
  objective response rate: 0 (0/2, 0-84.2%)
180mg, dose expansion phase, Prior ALK TKI treatment: ALK TKI naive
  objective response rate: 79.2% (19/24, 57.8-92.9%)
ALK TKI naive
  DCR: 92.9%
  ORR: 76.2%
  median PFS: not reached
120 mg
  DOR, median (95% CI): NR (5.52, NR)
  PFS, median (95% CI): NR (6.87, NR)
  TTP, median (95% CI): NR (6.87, NR)
120 mg (n=47)
  DCR (95% CI): 83.0% (69.2%, 92.4%)
  ORR (95% CI): 53.2% (38.1%, 67.9%)
  PFS, number of events (%): 12 (25.5%)
180 mg
  DOR, median (95% CI): NR (5.49, NR)
  PFS, median (95% CI): NR (NR, NR)
  TTP, median (95% CI): NR (NR, NR)
180 mg (n=44)
  DCR (95% CI): 88.6% (75.4%, 96.2%)
  ORR (95% CI): 63.6% (47.8%, 77.6%)
  PFS, number of events (%): 8 (18.2%)
total
  DOR, median (95% CI): NR (5.65, NR)
  PFS, median (95% CI): not reached (95% CI 6.93 months to NR); also recorded: NR (6.93, NR)
  TTP, median (95% CI): NR (6.93, NR)
Total (n=91)
  PFS, number of events (%): 20 (22.0%)
ALK-rearranged patients (n = 91)
  patients who achieved SD: Twenty-five
ALK-rearranged, ALK TKI naive
  ORR: 76.3%
ALK-rearranged, ALK TKI naive, chemotherapy-naive
  ORR: 85.0%
ALK-rearranged, ALK TKI naive, received chemotherapy
  ORR: 66.7%
[1]
  ORR: 45.7%
  median PFS: 6.9 months
FAS n = 99
  patients who achieved PR, n (%): 56 (56.6%)
  patients with progressive disease, n (%): 8 (8.1%)
  patients with stable disease (SD), n (%): 27 (27.3%)
